Experimental data: patent publication US20200016145A1, “TREATMENT OF CHRONIC TRAUMATIC ENCEPHALOPATHY” (CTEC LLC, priority 2018, published 2020)
Entries after “also recorded” stand apart in the source; their conditions may differ.

How the values were obtained:
ER stress = assay: ER stress, tau kinase and apoptosis markers after blast-induced TBI (western blot, immunohistochemistry, PCR); type: in vivo, Sprague Dawley rat
Experimental: An animal model was used to evaluate TBI, and neuropathological specimens (donated by the Brain Injury Research Institute brain bank) were used to evaluate CTE. TBI was blast induced in the animal model. […] Salubrinal was administered to the animal model following the injury. The ER stress was modulated by the use of salubrinal. […] This example assessed the successful targeting of ER stress after TBI. […] A Sprague Dawley rat was positioned in a protective tube to prevent injury to the peripheral organs, and an acceleration wave was generated and allowed to collide with the skull of the rat. The intensity of the injury was adjusted in a step-wise manner by decreasing or increasing the thickness of the membrane that exploded with pressurized nitrogen gas. An injury paradigm of 50 PSI was selected, which correlates with human concussion, that is the most common type of injury linked to CTE. In FIG. 4, the peak in plot D illustrates the 50 PSI pressure wave. The Sprague Dawley rats were given either one injury, or six injuries over a two-week period. Various time points of sacrifice were chosen to look at markers of ER stress and tauopathy. Salubrinal was administered to the rats after injury to target ER stress. Salubrinal was administered by IP injection 30 minutes after injury using a dose of 1 mg/kg. […] Salubrinal-mediated CHOP reduction may be associated with preservation of the pro-form of Caspase-12 that when cleaved, has been associated with ER-mediated apoptosis or cell death. Reducing CHOP with salubrinal also may result in reduction of sustained oxidative stress and neuro-inflammation. LICOR western blot protocols, IHC world immunohistochemistry protocols, and Applied Biosystems PCR protocols were used for the assays. ANOVA was used for analysis with p<0.05 being statistically significant. *=p<0.05, **=p<0.01, ***=p<0.001. When the drug group was compared to the injury group #=p<0.05, ##=p<0.01, ###=p<0.001.

oxidative stress = assay: Oxidative stress markers after blast injury; type: in vivo, Sprague Dawley rat
Text: This example assessed the successful targeting of ER stress after TBI. […] A Sprague Dawley rat was positioned in a protective tube to prevent injury to the peripheral organs, and an acceleration wave was generated and allowed to collide with the skull of the rat. The intensity of the injury was adjusted in a step-wise manner by decreasing or increasing the thickness of the membrane that exploded with pressurized nitrogen gas. An injury paradigm of 50 PSI was selected, which correlates with human concussion, that is the most common type of injury linked to CTE. In FIG. 4, the peak in plot D illustrates the 50 PSI pressure wave. The Sprague Dawley rats were given either one injury, or six injuries over a two-week period. Various time points of sacrifice were chosen to look at markers of ER stress and tauopathy. Salubrinal was administered to the rats after injury to target ER stress. Salubrinal was administered by IP injection 30 minutes after injury using a dose of 1 mg/kg. […] Salubrinal-mediated CHOP reduction may be associated with preservation of the pro-form of Caspase-12 that when cleaved, has been associated with ER-mediated apoptosis or cell death. Reducing CHOP with salubrinal also may result in reduction of sustained oxidative stress and neuro-inflammation. LICOR western blot protocols, IHC world immunohistochemistry protocols, and Applied Biosystems PCR protocols were used for the assays. ANOVA was used for analysis with p<0.05 being statistically significant. *=p<0.05, **=p<0.01, ***=p<0.001. When the drug group was compared to the injury group #=p<0.05, ##=p<0.01, ###=p<0.001. […] Measured components included carbonyls (plot A), superoxide (plot B), reactive oxygen species (ROS) (plot C), and NADPH oxidase 4 (NOX4) (plot D). As shown in A, B and […], administration of salubrinal (sTBI+SAL) reduced protein carbonyls, super-oxides, and total oxidative stress production, respectively.

neuroinflammation = assay: Neuroinflammation markers after blast injury; type: in vivo, Sprague Dawley rat
Text: This example assessed the successful targeting of ER stress after TBI. […] A Sprague Dawley rat was positioned in a protective tube to prevent injury to the peripheral organs, and an acceleration wave was generated and allowed to collide with the skull of the rat. The intensity of the injury was adjusted in a step-wise manner by decreasing or increasing the thickness of the membrane that exploded with pressurized nitrogen gas. An injury paradigm of 50 PSI was selected, which correlates with human concussion, that is the most common type of injury linked to CTE. In FIG. 4, the peak in plot D illustrates the 50 PSI pressure wave. The Sprague Dawley rats were given either one injury, or six injuries over a two-week period. Various time points of sacrifice were chosen to look at markers of ER stress and tauopathy. Salubrinal was administered to the rats after injury to target ER stress. Salubrinal was administered by IP injection 30 minutes after injury using a dose of 1 mg/kg. […] Salubrinal-mediated CHOP reduction may be associated with preservation of the pro-form of Caspase-12 that when cleaved, has been associated with ER-mediated apoptosis or cell death. Reducing CHOP with salubrinal also may result in reduction of sustained oxidative stress and neuro-inflammation. LICOR western blot protocols, IHC world immunohistochemistry protocols, and Applied Biosystems PCR protocols were used for the assays. ANOVA was used for analysis with p<0.05 being statistically significant. *=p<0.05, **=p<0.01, ***=p<0.001. When the drug group was compared to the injury group #=p<0.05, ##=p<0.01, ###=p<0.001. […] Measured components included NF kappa B (plot A), inducible nitric oxide synthase (iNOS) (plot B), interleukin 1 beta (IL-1β) (plot C), and tumor necrosis factor alpha (TNFα) (plot D). As shown in plots A, C and D, salubrinal administration (sTBI+SAL) reduced pro-inflammatory markers NFκB, IL-1β and TNFα, respectively.

Sprague Dawley rat [1] = assay: Elevated plus maze after blast injury (impulsive-like behavior); type: in vivo
Experimental: (§1) The administration of salubrinal prior to bTBI was also evaluated in an animal model. Use of the salubrinal ameliorated neuropsychiatric deficits in the form of impulsive-like behavior as measured by the elevated plus maze test/protocol, and spatial memory as measured by the Morris water maze test/protocol. This example assessed the successful targeting of ER stress after TBI. […] A Sprague Dawley rat was positioned in a protective tube to prevent injury to the peripheral organs, and an acceleration wave was generated and allowed to collide with the skull of the rat. The intensity of the injury was adjusted in a step-wise manner by decreasing or increasing the thickness of the membrane that exploded with pressurized nitrogen gas. An injury paradigm of 50 PSI was selected, which correlates with human concussion, that is the most common type of injury linked to CTE. In FIG. 4, the peak in plot D illustrates the 50 PSI pressure wave. The Sprague Dawley rats were given either one injury, or six injuries over a two-week period. Various time points of sacrifice were chosen to look at markers of ER stress and tauopathy. In this example, the effect of targeting (turning off) ER stress on improved behavior was studied by utilizing the injury models and standard protocols for Morris water maze and elevated plus maze. The Morris water maze detected deficits in cognitive performance whereas the elevated plus maze evaluated impulsive-like behavior. […] ANOVA was used for statistical analysis with *=p<0.05, **=p<0.01, ***=p<0.001. When drug was compared to injury group #=p<0.05, ##=p<0.01, ###=p<0.001.

Sprague Dawley rat [2] = assay: Morris water maze after blast injury (cognitive performance); type: in vivo
Experimental: as §1

[3] = bTBI animal model, administered following the injury
[4] = post-blast administration (FIG. 6)

`O=C(/C=C/c1ccccc1)NC(NC(=S)Nc1cccc2cccnc12)C(Cl)(Cl)Cl` (stereo not drawn) [salubrinal, 3-phenyl-N-[2,2,2-trichloro-1-[[(8-quinolinylamino)thioxomethyl]amino]ethyl]-2-propenamide] was tested, and the GSK3β activity (ER stress; 1 mg/kg IP 30 minutes after injury) was “reduced”, the “CHOP (marker of ER stress)” value (ER stress; 1 mg/kg IP 30 minutes after injury, 24 hours after a single blast injury (FIG. 5 plot C)) was “prevented the surge; also recorded: significantly reduced” and the “GADD34 (marker of ER stress)” value (ER stress; 1 mg/kg IP 30 minutes after injury, 24 hours after a single blast injury (FIG. 5 plot E)) was “inhibited; also recorded: significantly reduced”. For the same compound, the ER stress (ER stress; [3]) was “modulated”, the “markers of neural degeneration and apoptosis” value (ER stress; [3]) was “reducing” and the CHOP by immunohistochemistry (ER stress; [4]) was “significantly reduced”. The “cleaved Caspase 3 (pro-apoptotic marker) by immunohistochemistry” value (ER stress; [4]) was “reduced”, the protein carbonyls (oxidative stress; 24 hours after injury (FIG. 7 plot A)) was “reduced” and the super-oxides (oxidative stress; 24 hours after injury (FIG. 7 plot B)) was “reduced”. The “total oxidative stress production” value (oxidative stress; 24 hours after injury (FIG. 7 plot D)) was “reduced”, the “NFκB (pro-inflammatory marker)” value (neuroinflammation; 24 hours after injury (FIG. 8 plot A)) was “reduced” and the “IL-1β (pro-inflammatory marker)” value (neuroinflammation; 24 hours after injury (FIG. 8 plot C)) was “reduced”. For the same compound, the “TNFα (pro-inflammatory marker)” value (neuroinflammation; 24 hours after injury (FIG. 8 plot D)) was “reduced”, the “impulsive-like behavior, time spent in the open arm of the elevated plus maze” value (Sprague Dawley rat [1]; administered after injury, 72 hours after the repeat injury (FIG. 12)) was “reduced” and the “impulsive-like behavior, time in the open arm of the elevated plus maze” value (Sprague Dawley rat [1]; administered after injury, seven days after a single injury (FIG. 11)) was “reduced”. The “neuropsychiatric deficits: impulsive-like behavior, elevated plus maze” value (Sprague Dawley rat [1]; administered prior to bTBI) was “ameliorated” and the “neuropsychiatric deficits: spatial memory, Morris water maze” value (Sprague Dawley rat [2]; administered prior to bTBI) was “ameliorated”.

`CC/C=C\C/C=C\C/C=C\C/C=C\C/C=C\C/C=C\CCC(=O)O` [DHA] was tested, and the “ER stress activator BiP” value (ER stress; three weeks following repetitive injury (FIG. 10 plot A)) was “inhibited”, the “tau kinase GSK3β” value (ER stress; three weeks following repetitive injury (FIG. 10 plot B)) was “inhibited” and the “cognitive learning, Morris water maze” value (Sprague Dawley rat [2]; after injury (FIG. 13 panel D)) was “improved”. The “retention of a learned event, probe trial” value (Sprague Dawley rat [2]; after injury (FIG. 13 panel E)) was “enhanced”.
